Here are results for 24 compounds from US20260297080A1, “BICYCLIC COMPOUNDS AS CDK INHIBITORS” (BeOne Medicines I GmbH, priority 2022, published 2026).

Assay [1] deals with CDK2/Cyclin E1 (Homo sapiens, UniProt P24941). Briefly: CDK2/Cyclin E1 Biochemical Assay (TR-FRET), 0.060 mM ATP. The conditions noted are these: 0.15 μM Rb (Ser780)-biotin substrate, pH7.0, 60 min preincubation, 120 min reaction, room temperature. An outline of the steps: (§1)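 Kinase preincubated with compound (0–10 μM) 60 min at room temperature, then reaction started with ATP and 0.15 μM Rb (Ser780)-biotin peptide and run 120 min in HEPES pH 7.0 buffer with 50 mM MgCl2. Phospho-Rb detected by Eu-cryptate anti-pRb(Ser780)/streptavidin-XL665 TR-FRET (665/620 nm ratio); IC50 from four-parameter logistic fit.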

Assay [2] deals with CDK1/Cyclin B1 (Homo sapiens, UniProt P06493). Kind of assay: CDK1/Cyclin B1 Biochemical Assay (TR-FRET), 0.015 mM ATP. The conditions noted are these: 0.15 μM Rb (Ser780)-biotin substrate, pH7.0, 60 min preincubation, 120 min reaction, room temperature. An outline of the steps:
as §1

Sequence of CDK1/Cyclin B1 (P06493 whole entry): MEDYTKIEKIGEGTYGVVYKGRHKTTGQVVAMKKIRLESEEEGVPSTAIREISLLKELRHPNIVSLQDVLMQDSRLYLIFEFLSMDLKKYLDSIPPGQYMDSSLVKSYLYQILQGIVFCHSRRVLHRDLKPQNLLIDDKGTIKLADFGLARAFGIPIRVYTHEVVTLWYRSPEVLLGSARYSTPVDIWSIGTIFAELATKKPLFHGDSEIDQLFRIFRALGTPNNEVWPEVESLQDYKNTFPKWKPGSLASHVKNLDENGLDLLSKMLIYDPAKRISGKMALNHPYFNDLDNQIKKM
Sequence of CDK1/Cyclin B1 (P14635 whole entry partner): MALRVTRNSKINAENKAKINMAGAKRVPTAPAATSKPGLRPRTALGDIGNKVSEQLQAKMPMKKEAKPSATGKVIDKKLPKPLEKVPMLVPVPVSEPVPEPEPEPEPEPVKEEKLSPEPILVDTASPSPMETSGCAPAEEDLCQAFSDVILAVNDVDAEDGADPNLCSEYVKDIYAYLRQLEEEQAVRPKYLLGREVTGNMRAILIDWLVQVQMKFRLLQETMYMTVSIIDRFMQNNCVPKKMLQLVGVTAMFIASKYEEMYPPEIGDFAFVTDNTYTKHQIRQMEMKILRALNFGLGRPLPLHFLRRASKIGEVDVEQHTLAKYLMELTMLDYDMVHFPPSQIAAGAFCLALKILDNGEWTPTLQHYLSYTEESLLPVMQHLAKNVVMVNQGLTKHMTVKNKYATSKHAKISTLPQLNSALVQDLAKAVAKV

`CC1NS(=O)(=O)c2ccc(Nc3cc([C@@H]4CC[C@H](OC(=O)NC5(C)CC5)C4)[nH]n3)c(F)c21` (single isomer, unassigned) [Example 52c, cis-3-(3-((4-fluoro-3-methyl-1,1-dioxido-2,3-dihydrobenzo[d]isothiazol-5-yl)amino)-1H-pyrazol-5-yl)cyclopentyl(1-methylcyclopropyl)carbamate]: the IC50 was 1.9 nM in assay [1] and 154 nM in assay [2].
`CC1NS(=O)(=O)c2ccc(Nc3cc([C@@H]4CC[C@H](OC(=O)NC5(C)CC5)C4)[nH]n3)c(F)c21` (single isomer, unassigned) [Example 52d, cis-3-(3-((4-fluoro-3-methyl-1,1-dioxido-2,3-dihydrobenzo[d]isothiazol-5-yl)amino)-1H-pyrazol-5-yl)cyclopentyl(1-methylcyclopropyl)carbamate]: the IC50 amounted to 1 nM in assay [1] and 56 nM in assay [2].
For `CCCNC(=O)O[C@H]1CC[C@@H](c2cc(Nc3ccc4c(c3F)C(C)NS4(=O)=O)n[nH]2)C1` (single isomer, unassigned) [Example 53a, cis-3-(3-((4-fluoro-3-methyl-1,1-dioxido-2,3-dihydrobenzo[d]isothiazol-5-yl)amino)-1H-pyrazol-5-yl)cyclopentyl propylcarbamate], the IC50 in assay [1] is 6.3 nM; in assay [2] it was 367 nM.
For `CCCNC(=O)O[C@H]1CC[C@@H](c2cc(Nc3ccc4c(c3F)C(C)NS4(=O)=O)n[nH]2)C1` (single isomer, unassigned) [Example 53b, cis-3-(3-((4-fluoro-3-methyl-1,1-dioxido-2,3-dihydrobenzo[d]isothiazol-5-yl)amino)-1H-pyrazol-5-yl)cyclopentyl propylcarbamate], in that order: 3.8 nM and 92 nM.
For the compound `CCCNC(=O)O[C@H]1CC[C@@H](c2cc(Nc3ccc4c(c3F)C(C)NS4(=O)=O)n[nH]2)C1` (single isomer, unassigned) [Example 53c, cis-3-(3-((4-fluoro-3-methyl-1,1-dioxido-2,3-dihydrobenzo[d]isothiazol-5-yl)amino)-1H-pyrazol-5-yl)cyclopentyl propylcarbamate], the IC50 in assay [1] stood at 15 nM; in assay [2] it was 686 nM.
Regarding `CCCNC(=O)O[C@H]1CC[C@@H](c2cc(Nc3ccc4c(c3F)C(C)NS4(=O)=O)n[nH]2)C1` (single isomer, unassigned) [Example 53d, cis-3-(3-((4-fluoro-3-methyl-1,1-dioxido-2,3-dihydrobenzo[d]isothiazol-5-yl)amino)-1H-pyrazol-5-yl)cyclopentyl propylcarbamate], the figures for the half-maximal inhibitory concentration (IC50) in assay [1] and in assay [2] were 7.1 nM and 170 nM, respectively.
As for `CC[C@H](C)NC(=O)O[C@H]1CC[C@@H](c2cc(Nc3ccc4c(c3F)C(C)NS4(=O)=O)n[nH]2)C1` (single isomer, unassigned) [Example 54a], the IC50 came out at 1.1 nM in assay [1] and 309 nM in assay [2].
For `CC[C@H](C)NC(=O)O[C@H]1CC[C@@H](c2cc(Nc3ccc4c(c3F)C(C)NS4(=O)=O)n[nH]2)C1` (single isomer, unassigned) [Example 54b], in that order: 2.7 nM and 564 nM.
Take `CC[C@H](C)NC(=O)O[C@H]1CC[C@@H](c2cc(Nc3ccc4c(c3F)C(C)NS4(=O)=O)n[nH]2)C1` (single isomer, unassigned) [Example 54c]: the IC50 amounted to 0.3 nM in assay [1] and 40 nM in assay [2].
Take `CC[C@H](C)NC(=O)O[C@H]1CC[C@@H](c2cc(Nc3ccc4c(c3F)C(C)NS4(=O)=O)n[nH]2)C1` (single isomer, unassigned) [Example 54d]: the IC50 is 3.2 nM in assay [1] and 428 nM in assay [2].
For `CC(C)NC(=O)O[C@H]1CC[C@@H](c2cc(Nc3ccc4c(c3F)CN(C3CCC3O)S4(=O)=O)n[nH]2)C1` (single isomer, unassigned) [Example 102, cis-3-(3-((4-fluoro-2-(2-hydroxycyclobutyl)-1,1-dioxido-2,3-dihydrobenzo[d]isothiazol-5-yl)amino)-1H-pyrazol-5-yl)cyclopentyl isopropylcarbamate], in that order: 5.1 nM and 406 nM.
For `CC(C)NC(=O)O[C@H]1CC[C@@H](c2cc(Nc3ccc4c(c3F)CN(C3CCC3O)S4(=O)=O)n[nH]2)C1` (single isomer, unassigned) [Example 103, cis-3-(3-((4-fluoro-2-(2-hydroxycyclobutyl)-1,1-dioxido-2,3-dihydrobenzo[d]isothiazol-5-yl)amino)-1H-pyrazol-5-yl)cyclopentyl isopropylcarbamate], the IC50 was 3.8 nM in assay [1] and 350 nM in assay [2].
`CC(C)NC(=O)O[C@H]1CC[C@@H](c2cc(Nc3ccc4c(c3F)CN(C3CC3)S4(=O)=O)n[nH]2)C1` (single isomer, unassigned) [Example 116a, cis-3-(3-((2-cyclopropyl-4-fluoro-1,1-dioxido-2,3-dihydrobenzo[d]isothiazol-5-yl)amino)-1H-pyrazol-5-yl)cyclopentyl isopropylcarbamate]: the values for the IC50 in assay [1] and in assay [2] were 5.4 nM and 518 nM, respectively.
With `CC(C)NC(=O)O[C@H]1CC[C@@H](c2cc(Nc3ccc4c(c3F)CN(C3CC3)S4(=O)=O)n[nH]2)C1` (single isomer, unassigned) [Example 116b, cis-3-(3-((2-cyclopropyl-4-fluoro-1,1-dioxido-2,3-dihydrobenzo[d]isothiazol-5-yl)amino)-1H-pyrazol-5-yl)cyclopentyl isopropylcarbamate], the IC50 in assay [1] is 5.4 nM; in assay [2], 189 nM.
As to `CC[C@H](C)NC(=O)O[C@H]1CC[C@@H](c2cc(Nc3ccc4c(c3F)CN(C3CC3)S4(=O)=O)n[nH]2)C1` (single isomer, unassigned) [Example 117a], the IC50 was determined as 2.5 nM in assay [1] and 326 nM in assay [2].
`CC[C@H](C)NC(=O)O[C@H]1CC[C@@H](c2cc(Nc3ccc4c(c3F)CN(C3CC3)S4(=O)=O)n[nH]2)C1` (single isomer, unassigned) [Example 117b]: the results for the IC50 in assay [1] and in assay [2] were 1.8 nM and 91 nM, respectively.
Taken in the same sequence, the figures for `CCCNC(=O)O[C@H]1CC[C@@H](c2cc(Nc3ccc4c(c3F)CN(C3CC3)S4(=O)=O)n[nH]2)C1` (single isomer, unassigned) [Example 118a, cis-3-(3-((2-cyclopropyl-4-fluoro-1,1-dioxido-2,3-dihydrobenzo[d]isothiazol-5-yl)amino)-1H-pyrazol-5-yl)cyclopentyl propylcarbamate] were 14 nM and 395 nM.
On to `CCCNC(=O)O[C@H]1CC[C@@H](c2cc(Nc3ccc4c(c3F)CN(C3CC3)S4(=O)=O)n[nH]2)C1` (single isomer, unassigned) [Example 118b, cis-3-(3-((2-cyclopropyl-4-fluoro-1,1-dioxido-2,3-dihydrobenzo[d]isothiazol-5-yl)amino)-1H-pyrazol-5-yl)cyclopentyl propylcarbamate], for which the IC50 was 8 nM in assay [1] and 168 nM in assay [2].
Take `CC1(NC(=O)O[C@H]2CC[C@@H](c3cc(Nc4ccc5c(c4F)CN(C4CC4)S5(=O)=O)n[nH]3)C2)CC1` (single isomer, unassigned) [Example 119a, cis-3-(3-((2-cyclopropyl-4-fluoro-1,1-dioxido-2,3-dihydrobenzo[d]isothiazol-5-yl)amino)-1H-pyrazol-5-yl)cyclopentyl(1-methylcyclopropyl)carbamate]: the 50% inhibitory concentration (IC50) is 2.5 nM in assay [1] and 216 nM in assay [2].
On to `CC1(NC(=O)O[C@H]2CC[C@@H](c3cc(Nc4ccc5c(c4F)CN(C4CC4)S5(=O)=O)n[nH]3)C2)CC1` (single isomer, unassigned) [Example 119b, cis-3-(3-((2-cyclopropyl-4-fluoro-1,1-dioxido-2,3-dihydrobenzo[d]isothiazol-5-yl)amino)-1H-pyrazol-5-yl)cyclopentyl(1-methylcyclopropyl)carbamate], for which the IC50 in assay [1] amounted to 1.9 nM; in assay [2] it was 114 nM.
Take `CC(C)NC(=O)O[C@H]1CC[C@@H](c2cc(Nc3ccc4c(c3F)CN(C)S4(=O)=O)n[nH]2)C1` (single isomer, unassigned) [Example 121a, cis-3-(3-((4-fluoro-2-methyl-1,1-dioxido-2,3-dihydrobenzo[d]isothiazol-5-yl)amino)-1H-pyrazol-5-yl)cyclopentyl isopropylcarbamate]: the IC50 in assay [1] came out at 5.8 nM; in assay [2] it was 425 nM.
For the compound `CC(C)NC(=O)O[C@H]1CC[C@@H](c2cc(Nc3ccc4c(c3F)CN(C)S4(=O)=O)n[nH]2)C1` (single isomer, unassigned) [Example 121b, cis-3-(3-((4-fluoro-2-methyl-1,1-dioxido-2,3-dihydrobenzo[d]isothiazol-5-yl)amino)-1H-pyrazol-5-yl)cyclopentyl isopropylcarbamate], the IC50 in assay [1] amounted to 3.3 nM; in assay [2], 130 nM.
For `CCCNC(=O)O[C@H]1CC[C@@H](c2cc(Nc3ccc4c(c3F)CN(C)S4(=O)=O)n[nH]2)C1` (single isomer, unassigned) [Example 122a, cis-3-(3-((4-fluoro-2-methyl-1,1-dioxido-2,3-dihydrobenzo[d]isothiazol-5-yl)amino)-1H-pyrazol-5-yl)cyclopentyl propylcarbamate], in that order: 12 nM and 455 nM.
For `CCCNC(=O)O[C@H]1CC[C@@H](c2cc(Nc3ccc4c(c3F)CN(C)S4(=O)=O)n[nH]2)C1` (single isomer, unassigned) [Example 122b, cis-3-(3-((4-fluoro-2-methyl-1,1-dioxido-2,3-dihydrobenzo[d]isothiazol-5-yl)amino)-1H-pyrazol-5-yl)cyclopentyl propylcarbamate], the results for the IC50 in assay [1] and in assay [2] were 8.8 nM and 124 nM, respectively.
